# How the values were obtained:
# S. pneumoniae [1] = conditions: 15 seconds incubation, then DIBO-ATTOS 488 for 5 min
# Experimental: The reaction is stopped by three washes with 1 ml of cold PBS. The bacterium is then re-suspended in 20-40 μl of PBS and observed immediately by fluorescence microscopy.
# S. pneumoniae R800 = conditions: C-medium without choline, 30 μM
# Experimental: FIG. 15. […] In C-medium without choline (*), with 30 μM azidocholine (†) or choline (‡).
# (§1) The choice was oriented towards a rapid click reaction involving an azide function carried by the choline and the strained dibenzoannulated cyclooctyne DIBO carrying the fluorophore. […] For subsequent click reaction, fluorescent DIBO offers a compromise between stability and rapidity with a choice of commercially available fluorophores.
# S. pneumoniae [2] = conditions: grown 4 hours with 30 μM, then 25 μM DIBO Alexa Fluor 5 min
# Description: as §1
# S. pneumoniae live cells = assay: TA metabolic labeling on pneumococcal live cells (CuAAC with coumarin, fluorescence microscopy); format: cell-based, Streptococcus pneumoniae; conditions: copper 50 μM, THPTA, 30 min, five independent experiments
# Description: FIG. 10. TA metabolic labeling on pneumococcal live cells. A. Detection of metabolically incorporated propargyl-choline in S. pneumoniae living cells after bioorthogonal reaction. (i) and (ii) refer to two different stages of division. Membrane and septal TA labeling are indicated by black and white arrow heads, respectively. Phase contrast and fluorescence images in the presence (left panel) or absence of propargyl-choline (right panel) are shown. Scale bar=1 μm. B. Electron micrographs of pneumococcal cells at division stages (i) and (ii) as shown in A. C.
# For bioorthogonal reactions, 10 ml of Cmed-choline and 10 ml of C-medium containing 4 μg/ml of propargyl-choline were inoculated at OD600 nm of 0.05 with aliquots of cells conditioned in C-medium as described above. The growth was pursued at 37° C.-5% CO2 for 3 hours until OD600 nm of 0.2-0.25 was reached, which corresponds to the early exponential growth phase. […]
# Pneumococcal cells were transferred to microscope slides and observed using an Olympus BX61 optical microscope equipped with a UPFLN 100× O-2PH/1.3 objective and a QImaging Retiga-SRV 1394 cooled charge-coupled device camera. […] The cells are then sorted by their length value and the fluorescence values are plotted as a heat map. […]
Compound,labeling quality after short pulse (S. pneumoniae [1]),ability to replace choline for growth (S. pneumoniae R800),cell surface labeling pattern (S. pneumoniae [2]),fluorescent signal ratio propargyl-choline/choline (S. pneumoniae live cells)
1-azidoethyl-choline,high-quality labeling,efficiently replaced choline to allow growth,Uniform cell surface labeling,
C#CC[N+](C)(C)CCO [propargyl-choline],,,,4.28±0.8

# Reference: patent US20200087703A1, “METABOLIC LABELING OF BACTERIAL TEICHOIC ACIDS CELL WALL” (priority 2017, published 2020)
